# Measurements reported in patent US20140303105A1, “Primycin and components thereof for use in the treatment or prevention of infections caused by specific pathogens” (PANNONPHARMA GYÓGYSZERGYÁRTÓ ZRT., priority 2011, published 2014).
# Like-named read-outs stand apart in the source and are kept apart here.
# Key:
# [1] = system: Staphylococcus aureus, methicillin susceptible; assay: Standard microdilution susceptibility test, clinical isolates; format: cell-based; conditions: Staphylococcus aureus, 10 clinical isolates
# [2] = system: Staphylococcus aureus, methicillin resistant; assay: as above; format: cell-based; conditions: Staphylococcus aureus, 10 clinical isolates
# [3] = system: Coagulase-negative Staphylococus sp., methicillin susceptible; assay: as above; format: cell-based; conditions: 10 clinical isolates
# [4] = system: Coagulase-negative Staphylococus sp., methicillin resistant; assay: as above; format: cell-based; conditions: 10 clinical isolates
# [5] = system: Enterococcus sp., vancomycin susceptible; assay: as above; format: cell-based; conditions: Enterococcus, 20 clinical isolates
# [6] = system: Streptococcus pneumoniae, penicillin susceptible; assay: as above; format: cell-based; conditions: Streptococcus pneumoniae, 10 clinical isolates
# [7] = system: Streptococcus pneumoniae, penicillin resistant; assay: as above; format: cell-based; conditions: Streptococcus pneumoniae, 10 clinical isolates
# [8] = system: Streptococcus viridans sp.; assay: as above; format: cell-based; conditions: Streptococcus viridans, 20 clinical isolates
# [9] = system: Staphylococcus epidermidis 7586; conditions: cited from earlier work
# [10] = system: Staphylococcus aureus 7503; conditions: cited from earlier work
# Diphteroides 8264 = conditions: cited from earlier work
# [11] = system: Staphylococcus saprophyticus 8454; conditions: cited from earlier work
# [12] = system: Serotype β Streptococcus 8252; conditions: cited from earlier work
# Streptococcus mitis 5728 = conditions: cited from earlier work
# [13] = system: Staphylococcus hominis 7835; conditions: cited from earlier work
# [14] = system: Streptococcus simulans 7866; conditions: cited from earlier work
# Micrococcus spp. = conditions: cited from earlier work
# Staphylococcus capitis = conditions: cited from earlier work
# [15] = system: Staphylococcus aureus ATCC 25923; conditions: cited from earlier work
# Escherichia coli B 1218 = conditions: cited from earlier work
# [16] = system: Enterobacter cloacae B 520; conditions: cited from earlier work
# [17] = system: Bacillus subtilis ATCC 6633; conditions: cited from earlier work
# Propionibacterium acnes [18] = conditions: cited from earlier work
# S. aureus = conditions: by Bryskier; cited from earlier work
# S. aureus ATCC 25923 = conditions: by Bryskier; cited from earlier work
# [19] = system: Staphylococcus epidermidis; conditions: by Bryskier; cited from earlier work
# S. pyogenes = conditions: by Bryskier; cited from earlier work
# Streptococcus mitis = conditions: by Bryskier; cited from earlier work
# Micrococcus = conditions: by Bryskier; cited from earlier work
# Coryneform(s) = conditions: by Bryskier; cited from earlier work
# B. subtilis ATCC 6633 = conditions: by Bryskier; cited from earlier work
# Escherichia coli = conditions: by Bryskier; cited from earlier work
# Enterobacter cloacae = conditions: by Bryskier; cited from earlier work
# Propionibacterium acnes [20] = conditions: by Bryskier; cited from earlier work
structure (smiles),measurement,setting,value
CC[C@H]1OC(=O)[C@H](C)[C@@H](O[C@H]2C[C@@](C)(OC)[C@@H](O)[C@H](C)O2)[C@H](C)[C@@H](O[C@@H]2O[C@H](C)C[C@H](N(C)C)[C@H]2O)[C@](C)(O)C[C@@H](C)C(=O)[C@H](C)[C@@H](O)[C@]1(C)O [Erythromycin],MIC50,[1]; read-out: MIC 50%,0.125 µg/mL
same,MIC90,[1]; read-out: MIC 90%,> 16 µg/mL
same,MIC50,[2]; read-out: MIC 50%,> 16 µg/mL
same,MIC90,[2]; read-out: MIC 90%,> 16 µg/mL
same,MIC50,[3]; read-out: MIC 50%,0.125 µg/mL
same,MIC90,[3]; read-out: MIC 90%,> 16 µg/mL
same,MIC50,[4]; read-out: MIC 50%,0.25 µg/mL
same,MIC90,[4]; read-out: MIC 90%,> 16 µg/mL
same,MIC50,[5]; read-out: MIC 50%,1 µg/mL
same,MIC90,[5]; read-out: MIC 90%,> 16 µg/mL
same,MIC50,[6]; read-out: MIC 50%,0.03 µg/mL
same,MIC90,[6]; read-out: MIC 90%,0.03 µg/mL
same,MIC50,[7]; read-out: MIC 50%,2 µg/mL
same,MIC90,[7]; read-out: MIC 90%,> 16 µg/mL
same,MIC50,[8]; read-out: MIC 50%,1 µg/mL
same,MIC90,[8]; read-out: MIC 90%,> 16 µg/mL
same,MIC,[9],<0.5 µg/mL
same,MIC,[10],>250 µg/mL
same,MIC,Diphteroides 8264,>250 µg/mL
same,MIC,[11],1.0 µg/mL
same,MIC,[12],0.5 µg/mL
same,MIC,Streptococcus mitis 5728,250 µg/mL
same,MIC,[13],250 µg/mL
same,MIC,[14],7.8 µg/mL
same,MIC,Micrococcus spp.,<0.5 µg/mL
same,MIC,Staphylococcus capitis,<0.5 µg/mL
same,MIC,[15],1.0 µg/mL
same,MIC,Escherichia coli B 1218,62.5 µg/mL
same,MIC,[16],250 µg/mL
same,MIC,[17],<0.5 µg/mL
same,MIC,Propionibacterium acnes [18],<0.5 µg/mL
same,MIC,S. aureus,>250 µg/mL
same,MIC,S. aureus ATCC 25923,1.0 µg/mL
same,MIC,[19],<0.5 µg/mL
same,MIC,S. pyogenes,0.5 µg/mL
same,MIC,Streptococcus mitis,250 µg/mL
same,MIC,Micrococcus,<0.5 µg/mL
same,MIC,Coryneform(s),>250 µg/mL
same,MIC,B. subtilis ATCC 6633,<0.5 µg/mL
same,MIC,Escherichia coli,62.5 µg/mL
same,MIC,Enterobacter cloacae,250 µg/mL
same,MIC,Propionibacterium acnes [20],<0.5 µg/mL
